Reference: PubChem BioAssay AID1996
Values after ≈ are worked out from the molar mass of the structure shown.

conditions: buffer; pH 7.4; 200.0 µM

| SMILES | solubility kinetic [µg/mL] |
| --- | --- |
| Cc1ccc2c(CN3CC(C)CC(C)C3)cc(=O)oc2c1C (stereo not drawn) | 3.3 (≈ 11 µM) |
| CC[C@H](C)[C@H](NC(N)=O)C(=O)Nc1ccccc1F | > 40.1 |
| CCOc1ccc(NC(=O)CN2C(=O)CSC(C)C2=O)cc1 (stereo not drawn) | > 48.4 |
| CCN(Cc1ccccc1)C(=O)COC(=O)[C@@H]1CCCN1C(=O)c1cccs1 | > 60.1 |
| O=C(O)c1cccc(S(=O)(=O)Nc2cccc3ccccc23)c1 | > 49.1 |
| Cc1ccc(OCC(=O)N2CCC(C)CC2)c([N+](=O)[O-])n1 | 43 (≈ 147 µM) |
| O=C(O)c1nc(NCCc2ccccc2)ncc1Cl | > 41.7 |
| NS(=O)(=O)c1cc(C(=O)Nc2ccc3c(c2)CCC3)ccc1Cl | 4.6 (≈ 13.1 µM) |
| O=C(Nc1ccc(S(=O)(=O)N2CCCC2)cc1)c1ccc([N+](=O)[O-])o1 | 6.8 (≈ 18.6 µM) |
| Cc1nc(C)c(C)nc1C | < 0.1 |
| Cc1cccc(Nc2ccncc2S(=O)(=O)NC(=O)NC(C)C)c1 | > 52.3 |
| CCN(CC)S(=O)(=O)c1ccc(OC(C)C)c(N)c1 | > 43 |
| O=C(CSc1ccccc1)Nc1ccc(N2CCOCC2)c(F)c1 | 2.7 (≈ 7.79 µM) |
| CC(C)Oc1ccc(S(=O)(=O)N2CCOCC2)cc1NC(=O)Cc1ccsc1 | 31.8 (≈ 74.9 µM) |
| Cc1ccc(-c2cc(N)nc(-c3ccccc3)c2)cc1 | < 0.3 |
| Cc1cccc(NC(=O)CNC(=O)COC(=O)C2CC2C)c1C (stereo not drawn) | > 47.8 |
| CC(=O)Oc1ccc(C(=O)Nc2cc(C)on2)cc1 | 38.1 (≈ 146 µM) |
| Cc1ccc2c(c1)/C(=C/c1ccccc1F)C(=O)N2 | 1.3 (≈ 5.13 µM) |
| O=S(=O)(Nc1ccc(C(F)(F)F)cn1)c1ccccc1 | 45.3 (≈ 150 µM) |
| Cc1csc(NC(=O)c2cncc(Br)c2)n1 | 4.7 (≈ 15.8 µM) |
| O=C(Cc1ccccc1)NNC(=S)NC(=O)c1cccnc1 | > 47.2 |
| Cc1ccccc1Nc1c(-c2ccccc2)nc2ncccn12 | 8.1 (≈ 27 µM) |
| Cc1cc(N)ccc1-c1cc2ccccc2oc1=O | 25.8 (≈ 103 µM) |
| O=C(Cc1ccc(Cl)cc1)Nc1ccc(CN2CCCCC2)cc1 | > 51.4 |
| Cc1cccc(N(CC(=O)N2CCCCCC2)S(C)(=O)=O)c1 | > 48.7 |
| CCN(CC)C(=S)SCC(=O)Nc1ncc2c(n1)CCCC2=O | 15.5 (≈ 44 µM) |

| SMILES | solubility kinetic [µg/mL] |
| --- | --- |
| COc1ccc(C)cc1Nc1nc(-c2ccccc2O)nc2ccccc12 | < 0.3 |
| O=C1c2ccccc2CN1C(CO)Cc1ccccc1 (stereo not drawn) | > 40.1 |
| CC(=O)Oc1ccc(C(=O)N2c3ccccc3NC(=O)C2C)cc1 (stereo not drawn) | > 48.7 |
| O=C(COC(=O)c1ccc2ccccc2c1O)NCC(F)(F)F | 2.5 (≈ 7.64 µM) |
| O=C(COC(=O)c1ccc2c(c1)OCCO2)Nc1ccc(F)cc1F | 6.9 (≈ 19.8 µM) |
| Cn1c(=O)c2[nH]c(SCC(=O)c3ccc(F)cc3)nc2n(C)c1=O | 7.5 (≈ 21.5 µM) |
| COc1ccccc1-n1c(SCC(=O)NCc2ccc3c(c2)OCO3)nc2cc([N+](=O)[O-])ccc21 | 3.1 (≈ 6.29 µM) |
| CCOc1ccc(NC(=S)N(C)C)cc1 | > 33.6 |
| O=C(CCN1C(=O)c2ccncc2C1=O)Nc1cc(F)ccc1F | 41.7 (≈ 126 µM) |
| CC1(C2CC2)NC(=O)N(CC(=O)Nc2ccc(F)cc2F)C1=O (stereo not drawn) | > 48.5 |
| C=Cc1ccc(Cn2c(=O)n(C)c(=O)c3sccc32)cc1 | 1 (≈ 3.35 µM) |
| COC(=O)CCC(=O)NNC(=O)c1ccc([N+](=O)[O-])cc1 | > 44.3 |
| O=C(c1ccco1)N1CCCC(Nc2ccc3c(c2)OCCO3)C1 (stereo not drawn) | 44.7 (≈ 136 µM) |
| O=C(CN1C(=O)NC2(CCSC2)C1=O)NCc1ccccc1 (stereo not drawn) | > 47.9 |
| COc1ccc(OC)c(C(=O)COC(=O)c2cccnc2Cl)c1 | > 50.4 |
| Cc1cccc(NC(=O)CN(CCc2ccccc2)S(C)(=O)=O)c1 | > 52 |
| CCc1ccccc1OCC(=O)Nc1ccc2c(c1)OCCO2 | 15.9 (≈ 50.7 µM) |
| CCc1ccc(NC(=O)Nc2ccc3c(c2)CCC3)cc1 | < 0.3 |
| CC(=O)OCc1c(-c2ccccc2)c2cc([N+](=O)[O-])ccc2n1C | 0.7 (≈ 2.16 µM) |
| CCN1CCCC1CNC(=O)CCc1nnc(CCC2CCCCC2)o1 (stereo not drawn) | > 54.4 |
| Nc1nc(CSc2ccc(Cl)cc2)nc(N2CCCCC2)n1 | 5.6 (≈ 16.7 µM) |
| COc1cccc(C2/C(=C(/O)c3ccc4c(c3)CC(C)O4)C(=O)C(=O)N2CC2CCCO2)c1 (stereo not drawn) | 64.7 (≈ 144 µM) |
| CCOC(=O)c1sc(NC(=O)CSC(=S)N2CCN(C)CC2)nc1C | > 60.4 |
| Cn1c(-c2cccc(Br)c2)cnc1NCc1ccccc1O | 6.3 (≈ 17.6 µM) |
| CCCc1nc2oc3c(=O)[nH]cnc3c2c2c1COC(C)(C)C2 | > 47 |
| COc1ccc(CCNS(=O)(=O)c2ccc3[nH]c(=O)[nH]c3c2)cc1 | 11.3 (≈ 32.5 µM) |

| SMILES | solubility kinetic [µg/mL] |
| --- | --- |
| Cn1c(=O)n(C)c2cc(S(=O)(=O)N3CCN(c4ccccc4)CC3)ccc21 | 0.3 (≈ 0.776 µM) |
| COc1ccc(-n2cc(-c3ccc(Br)cc3)[nH]c2=S)cc1 | < 0.4 |
| Nc1nc(-c2ccc3c(c2)OCCO3)c(CC(=O)O)s1 | 41.1 (≈ 141 µM) |
| CCCCn1c(CCCNC(=O)c2ccco2)nc2ccccc21 | > 48.8 |
| CN1CCN(CC(C)(C)NS(=O)(=O)c2ccccc2)CC1 | > 46.7 |
| N#Cc1c(N)n(-c2cccc(O)c2)c2nc3ccccc3nc12 | 6.4 (≈ 21.2 µM) |
| CCc1ccc(CCC(=O)Nc2ccc(Cl)cc2)o1 | 8.1 (≈ 29.2 µM) |
| N=C1c2ccccc2CN1c1ccc(F)c([N+](=O)[O-])c1 | > 40.7 |
| CCCNc1nc(N2CCCC2)nc(N2CCCC2)n1 | 33.6 (≈ 122 µM) |
| Cc1cc(NC(=O)c2ccc(F)cc2)no1 | 20.7 (≈ 94 µM) |
| Cn1cnc2cc(NCc3ccccc3O)ccc21 | 36.9 (≈ 146 µM) |
| CCS(=O)(=O)c1ccc(C(=O)NC)c(Cl)c1Cl | > 44.4 |
| N#CC(C(N)=O)=C1CCCCC1 | > 24.6 |
| CCc1cc(C(=O)c2ccccc2)c(N)s1 | 16.6 (≈ 71.8 µM) |
| CCOC(=O)c1ccc(NC(=S)N2CCN(c3ccccn3)CC2)cc1 | 1.2 (≈ 3.24 µM) |
| COc1cccc(NC(=O)c2ccccc2Oc2ccccc2)c1 | 6.4 (≈ 20 µM) |
| CCOC(=O)Cn1c(C)c(Br)c(COC)c(C#N)c1=O | > 51.5 |
| COCCCn1c(SCC(=O)N2CCOCC2)nc2ccccc2c1=O | 52.2 (≈ 138 µM) |
| Cc1ccc(NC(=O)CSc2cccc3cccnc23)c(C)c1 | 5.2 (≈ 16.1 µM) |
| COc1ccc(CNC(=O)C2CCCN2C)cc1OC (stereo not drawn) | 37 (≈ 133 µM) |
| O=C1C=CC(=O)N1 | 9 (≈ 92.7 µM) |
| COc1ccc(-c2cc(C(=O)Nc3ccc(OC)c(OC)c3)no2)cc1 | < 0.4 |
| COCCCNc1ncnc2c1nc1n2CCCC1 | > 39.2 |
| O=C(O)c1csc(-c2cccs2)n1 | > 31.7 |
| Cc1cc(C)nc(/N=C(\N)Nc2ccc(S(N)(=O)=O)cc2)n1 | 44.6 (≈ 139 µM) |
| CCc1ccc(NC(=O)C(=O)NCC2CCCO2)cc1 (stereo not drawn) | 18.5 (≈ 66.9 µM) |

Second part, the compound after the results:

| solubility kinetic [µg/mL] | SMILES |
| --- | --- |
| > 51.7 | CCOc1ccc(C(=O)NCC(c2ccco2)N2CCOCC2)cc1 (stereo not drawn) |
| 0.4 (≈ 1.23 µM) | O=C1/C(=C/c2ccccn2)SC(=S)N1CCc1ccccc1 |
| > 49.9 | O=C(C(=O)N1CCCCC1)c1c(-c2ccccc2)[nH]c2ccccc12 |
| > 35 | O=C(Nc1cccnc1)c1ccc([N+](=O)[O-])o1 |
| > 48.1 | CCOc1ccc(C(=O)NCCN2CCCCC2)c(OCC)c1 |
| > 59.2 | CCOC(=O)Cc1csc(NS(=O)(=O)c2ccc(C(F)(F)F)cc2)n1 |
| 23.1 (≈ 82.1 µM) | COc1cccc(/C=N/c2nc3ccccc3n2C)c1O |
| > 49.4 | CCOc1ccc(CCNC(=O)c2cnc(C)cn2)cc1OCC |
| > 49.9 | CC(=O)Nc1ccc(S(=O)(=O)NCCCc2ccccc2)cc1 |
| 38.1 (≈ 138 µM) | O=C(NCCc1ccc(Cl)cc1)c1ccc(=O)[nH]c1 |
| < 0.2 | N#C/C(=C(/O)c1ccc([N+](=O)[O-])cc1)c1nc2ccccc2[nH]1 |
| 37.1 (≈ 135 µM) | CC(C)c1ccccc1OCCCCN1CCCCC1 |
| 3.9 (≈ 11.6 µM) | CSc1oc(-c2cccs2)nc1S(=O)(=O)c1ccccc1 |
| 1.2 (≈ 4.61 µM) | CCCc1cc(C(=O)Nc2cc(C)ccc2O)no1 |
| > 35.4 | CCOn1c(=O)c(=O)n(OC)c2ccccc21 |
| > 41.3 | CC1(CCCN2C(=O)c3ccccc3C2=O)OCCO1 |
| 0.2 (≈ 0.54 µM) | N=C1SC(CC(=O)Nc2ccccc2[N+](=O)[O-])C(=O)N1c1ccccc1 (stereo not drawn) |
| > 51.4 | CC(=O)NCCc1nc2cc(NC(=O)c3cccs3)ccc2n1C |
| > 50.2 | CNC(=O)COc1ccc(S(=O)(=O)Nc2ccc(C)cc2)cc1 |
| > 39.9 | O=C(NCCc1cccc(Cl)c1)c1cccs1 |

| solubility kinetic [µg/mL] | SMILES |
| --- | --- |
| > 43.2 | CC1COc2ccccc2N1C(=O)c1ccccc1Cl (stereo not drawn) |
| > 48.2 | CC(=O)c1ccc(Nc2c(C)n(C)n(-c3ccccc3)c2=O)cc1 |
| 22 (≈ 68 µM) | O=C(Nc1ccccc1)C1CCCN1C(=O)NCc1ccccc1 (stereo not drawn) |
| > 66.5 | CCN(C(=O)CN1CCC(C(=O)OC)CC1)c1c(N)n(Cc2ccccc2)c(=O)[nH]c1=O |
| > 53.2 | O=C(O)CC(NC(=O)C1CCCCC1)c1cc([N+](=O)[O-])ccc1Cl (stereo not drawn) |
| 6.5 (≈ 14.1 µM) | O=C(c1cncc(Br)c1)N1CCN(S(=O)(=O)c2ccc3ccccc3c2)CC1 |
| 1.7 (≈ 5.38 µM) | O=C(COc1ccccc1[N+](=O)[O-])Nc1ccc2c(c1)OCO2 |
| > 39.4 | Cc1ccc(C)c(Nc2cc(C)nc3ccccc23)c1 |
| 14.4 (≈ 63.1 µM) | Cc1ccc(NC(=O)Nc2cnccn2)cc1 |
| 18.7 (≈ 74.1 µM) | CC(=O)Nc1ccc(N2Cc3ccccc3C2)cc1 |
| 51.1 (≈ 145 µM) | CC(=O)N(CCC1(C(C)C)CCOC(C)(C)C1)C(C)c1cccs1 (stereo not drawn) |
| 0.7 (≈ 3.95 µM) | Cc1nc2cc(C)c(C)cc2s1 |
| 51.5 (≈ 138 µM) | O=C(COC(=O)COc1ccccc1[N+](=O)[O-])Nc1ccc2c(c1)OCO2 |
| > 46.7 | COc1ccc(N2CC(C(=O)Nc3cccnc3)CC2=O)cc1 (stereo not drawn) |
| > 74.5 | NS(=O)(=O)c1cccc(NC(=O)CN2CCN(S(=O)(=O)c3ccc4c(c3)OCCO4)CC2)c1 |
| 21.2 (≈ 61.2 µM) | COc1ccc(Nc2nc(N)c([N+](=O)[O-])c(N3CCOCC3)n2)cc1 |
| > 44.7 | COC(=O)c1cc(S(=O)(=O)N(C)Cc2ccco2)c[nH]1 |
| > 53.6 | Cc1noc(C)c1NC(=O)NCCN1CCN(Cc2ccccc2)CC1 |
| > 65.2 | COc1ccccc1C(c1c(O)nc(SC)[nH]c1=O)c1c(O)nc(SC)[nH]c1=O |
| 0.5 (≈ 1.68 µM) | Cc1ccc(S(=O)(=O)c2cc3ccccc3nc2N)cc1 |
